These results are taken from PMC11858653, “Design, Synthesis and Bioactive Evaluation of Topo I/c-MYC Dual Inhibitors to Inhibit Oral Cancer via Regulating the PI3K/AKT/NF-κB Signaling Pathway” (Molecules, 2025).

The subject of test [1] is SV-HUC-1. The experiment in a line: MTT assay, normal cell line SV-HUC-1. The test is classed as cell-based. Particulars: 48 h, mean ± SD. The protocol: (§1) Having evaluated their Topo I inhibitory activity, the antiproliferative activity of the target compounds against some common human cancer cell lines (NCI-H460, A549, ACHN, Cal27 and MGC-803) and one normal cell line (SV-HUC-1) was tested via an MTT assay. TPT, the first Topo I inhibitor approved in clinics, and cisplatin (CDDP), a commonly selected anticancer drug for treating head and neck malignancies, were used as the positive controls.
(§2) Human oral cancer Cal27 cells were seeded in 96-well plates and incubated overnight in 180 μL of medium containing 10% Fetal Bovine Serum (Gibco, San Francisco, CA, USA). […] Then, 10 μL of 5 mg/mL MTT solution was added to each well and incubated at 37 °C for 4 h. After 4 h of incubation at 37 °C, the MTT-containing medium was removed and DMSO was added to each well and the absorbance at 570 nm and 630 nm was measured using a microplate reader (CYTATION 3, Burton, Westwood, NJ, USA). Survival/% = (mean OD of experimental group/mean OD of control group) × 100%. Each test was repeated at least three times.
For orientation: Formazan colour is commonly taken as a measure of viable cells.

Test [2] deals with NCI-H460. The experiment in a line: MTT antiproliferative assay, NCI-H460. As to conditions: 48 h, mean ± SD. Format: cell-based, human. The protocol:
as §1, §2

The subject of test [3] is ACHN. Nature of the test: MTT antiproliferative assay, ACHN. Format: cell-based, human. Particulars: 48 h, mean ± SD. The protocol:
as §1, §2

In test [4] the test system is Cal27. The experiment in a line: MTT antiproliferative assay, Cal27. Particulars: 48 h, mean ± SD. The test is classed as cell-based, human. The protocol: as §1, §2
For test [5], the system named is MGC-803. Nature of the test: MTT antiproliferative assay, MGC-803. The test is classed as cell-based, human. As to conditions: 48 h, mean ± SD. The protocol:
as §1, §2

Test [6] deals with T1, Topo I (Homo sapiens, UniProt P11387).
T1 sequence (P11387 1-765): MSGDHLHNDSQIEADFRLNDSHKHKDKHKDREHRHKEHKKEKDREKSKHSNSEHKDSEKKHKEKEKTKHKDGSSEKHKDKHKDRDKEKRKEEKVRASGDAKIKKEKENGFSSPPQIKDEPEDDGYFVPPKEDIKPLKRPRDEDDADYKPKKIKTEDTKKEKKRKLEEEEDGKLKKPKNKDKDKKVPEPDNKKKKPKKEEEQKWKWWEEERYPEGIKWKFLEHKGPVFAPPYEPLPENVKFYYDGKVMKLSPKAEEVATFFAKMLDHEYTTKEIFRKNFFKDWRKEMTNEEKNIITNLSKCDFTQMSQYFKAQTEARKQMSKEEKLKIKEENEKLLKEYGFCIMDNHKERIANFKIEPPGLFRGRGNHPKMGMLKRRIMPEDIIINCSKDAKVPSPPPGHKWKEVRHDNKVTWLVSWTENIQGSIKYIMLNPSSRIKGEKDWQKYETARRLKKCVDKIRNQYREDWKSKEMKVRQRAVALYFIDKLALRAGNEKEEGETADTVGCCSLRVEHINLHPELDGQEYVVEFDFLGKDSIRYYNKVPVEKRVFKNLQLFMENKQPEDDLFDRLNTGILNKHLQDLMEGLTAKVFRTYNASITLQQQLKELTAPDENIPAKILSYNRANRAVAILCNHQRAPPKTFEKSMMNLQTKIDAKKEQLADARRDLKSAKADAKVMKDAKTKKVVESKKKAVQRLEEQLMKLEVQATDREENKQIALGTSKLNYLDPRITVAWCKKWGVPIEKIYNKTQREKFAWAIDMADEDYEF
Nature of the test: Topo I inhibitory activity, agarose gel electrophoresis (pBR322). Format: biochemical. Particulars: 20 μM. The protocol: In this assay, 250 ng of pBR322 plasmid DNA, different concentrations of the compounds to be tested, 0.1% BSA 1 μL, 10× Topo I buffer, Topo I and add 1× TAE buffer were mixed to a final volume of 20 μL. The reaction was carried out for 30 min at 37 °C in a water bath. After the reaction was terminated, 4 μL of each of the 6× DNA Sampling Buffers were added to the gel. The pBR322 plasmid DNA alone was used as a negative control, and camptothecin was used as a positive control. Finally, the samples were loaded onto the gels and electrophoresed for about 1.5 h. After electrophoresis, the gel blocks were incubated in 1 mg/L ethidium bromide (EB) for 30 min and then visualized on the gel system.

Test [7] deals with A549. Nature of the test: MTT antiproliferative assay, A549. Particulars: 48 h, mean ± SD. Format: cell-based, human. As to the method:
as §1, §2

In test [8] the test system is human oral cancer Cal27 xenograft tumor. The experiment in a line: In vivo antitumor activity, Cal27 xenograft. Set-up: species or system BALB/c nude mice. Particulars: 2 mg/kg i.p. once every other day, 21 days. The protocol: Nude mouse organ and tumor tissues fixed with neutral formalin solution were paraffin-embedded according to the conventional processing method. Sections were cut to a thickness of approximately 5 μm, placed on glass slides and dewaxed in an oven at 60 °C, stained for H&E and immunohistochemistry and finally visualized with the Cytation 5 imaging system.
For this assay, 130 SPF-grade BALB/c mice (female, 4–6 weeks old, 18–20 g) were obtained from Chang Zhou Cavens Laboratory Animal Ltd. (Changzhou, China). The in vivo activity experiments were commissioned by Nanjing OG Pharmaceuticals, Co., Ltd. (Nanjing, China) All mice were housed in plastic cages, fed, and watered under standard conditions and air filtration (22 ± 2 °C; 12 h light/dark cycles). Under aseptic conditions, human oral cancer Cal27 cells were inoculated subcutaneously in the right axilla of BALB/c nude mice. When the tumors had grown to about 85 mm^3, 24 […] mice with good growth status and good homogeneity of tumor size were selected and randomly divided into the following four groups of six mice each: (1) the model group; (2) the low-dose group; (3) the high-dose group; and (4) the positive drug group. The drug dose in the low-dose group was 10 mg/kg, which was injected intraperitoneally once every other day, for the duration of 21 days of administration; the drug dose in the high-dose group was 20 mg/kg, which was injected intraperitoneally once every other day, for the duration of 21 days of administration; and the drug dose in the cisplatin group was 2 mg/kg, which was injected intraperitoneally once every other day, for the duration of 21 days of administration. Normal tissues of the heart, liver, spleen, lung and kidney and half of the tumor tissues were fixed with 4% formalin solution and embedded in paraffin for histological analysis; the other half of the tumor tissues were preserved in liquid nitrogen, and the supernatant was extracted after milling the tissues and detected by Western blot.

Test [9] has as its system Cal27 cells. The experiment in a line: MTT cell survival with autophagy inhibitor CQ. The test is classed as cell-based, human. Particulars: Cal27, 20 μM alone. As to the method:
Meanwhile, to further confirm that compound 7be could induce autophagic death in Cal27 cells, we used a classical autophagy inhibitor, chloroquine (CQ), to evaluate the role of autophagy in compound 7be-mix-induced cell death.
Human oral cancer Cal27 cells were seeded in 96-well plates and incubated overnight in 180 μL of medium containing 10% Fetal Bovine Serum (Gibco, San Francisco, CA, USA). On the following day, compounds at final concentrations of 2.5, 5, 10 and 20 μM were added to each well and incubated for 48 h. Then, 10 μL of 5 mg/mL MTT solution was added to each well and incubated at 37 °C for 4 h. After 4 h of incubation at 37 °C, the MTT-containing medium was removed and DMSO was added to each well and the absorbance at 570 nm and 630 nm was measured using a microplate reader (CYTATION 3, Burton, Westwood, NJ, USA). Survival/% = (mean OD of experimental group/mean OD of control group) × 100%. Each test was repeated at least three times.

One may read the IC50 as the concentration at which inhibition is half-maximal. A low value points to greater potency in that assay. As to `Cc1cc(-c2ccccc2)nc2c1-c1nc(NCCCN(C)C)c3ccccc3c1S2(=O)=O` [7cf, 5-((3-(Dimethylamino)propyl)amino)-7-methyl-9-phenylpyrido[3′,2′:4,5]thieno[3,2-c]isoquinoline 11,11-dioxide], the IC50 in test [1] was 12.1 ± 3.26 µM; in test [2] it was 12.6 ± 2.23 µM; in [3] it was 16.6 ± 3.08 µM; in test [4], 21.5 ± 3.81 µM; in test [5] it was 13.3 ± 4.44 µM; in [7] it was greater than 100 µM. Further, in test [6], the “nicked DNA in the lane (DNA breakage)” value is on record as “nicked DNA could be clearly observed”.

Regarding `CCN(CC)CCCNc1nc2c(c3ccccc13)S(=O)(=O)c1nc(-c3ccccc3)cc(C)c1-2` [7cg, 5-((3-(Diethylamino)propyl)amino)-7-methyl-9-phenylpyrido[3′,2′:4,5]thieno[3,2-c]isoquinoline 11,11-dioxide], the IC50 was determined as 15.6 ± 3.18 µM in test [1]; 16.6 ± 1.44 µM in test [2]; 15.4 ± 3.65 µM in test [3]; 17.7 ± 3.96 µM in test [4]; 8.22 ± 2.75 µM in [5]; 27.1 ± 2.25 µM in [7]. For the same molecule, the “nicked DNA in the lane (DNA breakage)” value in test [6] is listed as “nicked DNA could be clearly observed”.

For `Cc1cc(-c2ccccc2)nc2c1-c1nc(NCCCN3CCCC3)c3ccccc3c1S2(=O)=O` [7ch, 7-Methyl-9-phenyl-5-((3-(pyrrolidin-1-yl)propyl)-amino)pyrido[3′,2′:4,5]thieno[3,2-c]isoquinoline 11,11-dioxide], the IC50 was 49.6 ± 3.27 µM in test [1]; greater than 100 µM in test [2]; greater than 100 µM in [3]; greater than 100 µM in test [4]; greater than 100 µM in [5]; greater than 100 µM in test [7]. In test [6], the “nicked DNA in the lane (DNA breakage)” value is “nicked DNA could be clearly observed”.

As for `[NH2][Pt]([NH2])([Cl])[Cl]` [CDDP, cisplatin, reference compound], the IC50 in [2] amounted to 12.2 ± 1.01 µM; in test [3] it was 12.4 ± 1.31 µM; in test [4] it was 8.81 ± 1.73 µM; in [5], 12.3 ± 0.8 µM; in test [7], 8.69 ± 1.05 µM. Besides, in test [8], the “relative tumor proliferation rate” value was 39.8%. Also, the “tumor inhibition rate / tumor growth inhibition (TGI)” value amounted to 59.44% in test [8] and 59.4% in test [8] (listed as cisplatin).

As to `CCN(CC)CCCC(C)Nc1ccnc2cc(Cl)ccc12` (stereo not shown) [CQ, chloroquine], the “cell survival rate versus control group” value in [9] (24 h) was “not significantly different”. In test [9] (48 h), the cell survival rate result is recorded as “more than 80%”.
